According to article PMC5612656, “In vitro and in vivo effects of 2,4 diaminoquinazoline inhibitors of the decapping scavenger enzyme DcpS: Context-specific modulation of SMN transcript levels” (PLoS ONE, 2017):

Test system: spinal cord transcriptome
Experiment: RNA-Seq of spinal cord tissue from 2B/- and 2B/+ mice
Format: in vivo, mouse
[1] = spinal cord, 2B/- RG3039 vs 2B/- vehicle, adjusted p-value 2.55E-55

Nc1nc(N)c2c(OCC3CCN(Cc4c(Cl)cccc4Cl)CC3)cccc2n1 [RG3039]
log2(fold-change) (2B-Veh vs 2B-RG3039, gene Osbpl3): 0.3051 | log2(fold-change) (2B-Veh vs 2B-RG3039, gene Phf13): 0.2527 | log2(fold-change) (2B-Veh vs 2B-RG3039, gene Pigz): -0.3408 | log2(fold-change) (2B-Veh vs 2B-RG3039, gene Pik3r1): -0.2417 | log2(fold-change) (2B-Veh vs 2B-RG3039, gene Plcb1): -0.2064 | log2(fold-change) (2B-Veh vs 2B-RG3039, gene Pld2): 0.3673 | log2(fold-change) (2B-Veh vs 2B-RG3039, gene Prr18): -0.2462 | log2(fold-change) (2B-Veh vs 2B-RG3039, gene Ptbp1): 0.3576 | log2(fold-change) (2B-Veh vs 2B-RG3039, gene Ptpdc1): -0.3585 | log2(fold-change) (2B-Veh vs 2B-RG3039, gene Pvrl3): 0.3266 | log2(fold-change) (2B-Veh vs 2B-RG3039, gene Rab31): -0.2849 | log2(fold-change) (2B-Veh vs 2B-RG3039, gene Ralb): 0.1805 | log2(fold-change) (2B-Veh vs 2B-RG3039, gene Rapgef3): -0.3391 | log2(fold-change) (2B-Veh vs 2B-RG3039, gene Rasal1): -0.2345 | log2(fold-change) (2B-Veh vs 2B-RG3039, gene Rgs19): 0.2532 | log2(fold-change) (2B-Veh vs 2B-RG3039, gene Serpina3n): -0.2457 | log2(fold-change) (2B-Veh vs 2B-RG3039, gene Sh3pxd2a): 0.3024 | log2(fold-change) (2B-Veh vs 2B-RG3039, gene Slc39a11): 0.2556 | log2(fold-change) (2B-Veh vs 2B-RG3039, gene Sox13): 0.3712 | log2(fold-change) (2B-Veh vs 2B-RG3039, gene Spon1): -0.207 | log2(fold-change) (2B-Veh vs 2B-RG3039, gene Srsf9): 0.255 | log2(fold-change) (2B-Veh vs 2B-RG3039, gene Stxbp3a): -0.2437 | log2(fold-change) (2B-Veh vs 2B-RG3039, gene Swap70): 0.2496 | log2(fold-change) (2B-Veh vs 2B-RG3039, gene Tfrc): 0.316 | log2(fold-change) (2B-Veh vs 2B-RG3039, gene Tlcd1): 0.158 | log2(fold-change) (2B-Veh vs 2B-RG3039, gene Tmod1): -0.2447 | log2(fold-change) (2B-Veh vs 2B-RG3039, gene Tubb2b): 0.2818 | log2(fold-change) (2B-Veh vs 2B-RG3039, gene Vgf): 0.2475 | log2(fold-change) (2B-Veh vs 2B-RG3039, gene Vps37b): 0.2543 | log2(fold-change) (2B-Veh vs 2B-RG3039, gene Wbscr27): -0.2613 | log2(fold-change) (2B-Veh vs 2B-RG3039, gene Wnt7b): 0.3209 | log2(fold-change) (2B-Veh vs 2B-RG3039, gene Zfp276): -0.2722 | log2(fold-change) (2B-Veh vs 2B-RG3039, gene Zfp692): -0.2503 | log2(fold-change) (2B-Veh vs 2B-RG3039, gene Zfp839): -0.2535 | log2(fold-change) (2B-Veh vs 2B-RG3039, gene Zhx3): -0.2128 | log2(fold-change) (2B-Veh vs 2B-RG3039, gene Zmat1): -0.3673 | log2(fold-change) (mouse, in vivo): 0.2853 | log2(fold-change) Chodl transcript (spinal cord RNA-Seq, 2B- RG vs. 2B+ Veh (sheet WT-Veh_vs_2B-859_all), adjusted p-value 1.03E-56): -2.122 | log2(fold-change) 4632404H12Rik transcript (spinal cord RNA-Seq, 2B- RG vs. 2B+ Veh (sheet WT-Veh_vs_2B-859_all), adjusted p-value 1.30E-36): 1.504 | log2(fold-change) Spp1 transcript (spinal cord RNA-Seq, 2B- RG vs. 2B+ Veh (sheet WT-Veh_vs_2B-859_all), adjusted p-value 1.87E-42): -1.107 | log2(fold-change) Gm26924 transcript (spinal cord RNA-Seq, 2B- RG vs. 2B+ Veh (sheet WT-Veh_vs_2B-859_all), adjusted p-value 5.93E-43): -1.355 | log2(fold-change) Ahnak2 transcript (spinal cord RNA-Seq, 2B- RG vs. 2B+ Veh (sheet WT-Veh_vs_2B-859_all), adjusted p-value 8.66E-40): -1.26 | log2(fold-change) Tgtp1 transcript (spinal cord RNA-Seq, RG3039 2B/- vs. vehicle 2B/-, adjusted p-value 0.000273937): 1.848 | log2(fold-change) Cfd transcript (spinal cord RNA-Seq, RG3039 2B/- vs. vehicle 2B/-, adjusted p-value 0.000300401): -2.755 | log2(fold-change) Kcnb2 transcript (spinal cord RNA-Seq, RG3039 2B/- vs. vehicle 2B/-, adjusted p-value 0.000330855): 1.602 | log2(fold-change) Fabp4 transcript (spinal cord RNA-Seq, RG3039 2B/- vs. vehicle 2B/-, adjusted p-value 0.000349974): -2.327 | log2(fold-change) Reg3b transcript (spinal cord RNA-Seq, RG3039 2B/- vs. vehicle 2B/-, adjusted p-value 0.00104281): 1.9386 | log2(fold-change) Saa3 transcript (spinal cord RNA-Seq, RG3039 2B/- vs. vehicle 2B/-, adjusted p-value 0.0020931): -2.03 | log2(fold-change) Tgtp2 transcript (spinal cord RNA-Seq, RG3039 2B/- vs. vehicle 2B/-, adjusted p-value 0.00223451): 1.688 | log2(fold-change) Slfn10-ps transcript (spinal cord RNA-Seq, RG3039 2B/- vs. vehicle 2B/-, adjusted p-value 0.00233365): 1.807 | log2(fold-change) Gm10629 transcript (spinal cord RNA-Seq, RG3039 2B/- vs. vehicle 2B/-, adjusted p-value 0.00341009): 1.585 | log2(fold-change) Myh4 transcript (spinal cord RNA-Seq, RG3039 2B/- vs. vehicle 2B/-, adjusted p-value 0.0039906): -2.1375 | log2(fold-change) Amtn transcript (spinal cord RNA-Seq, RG3039 2B/- vs. vehicle 2B/-, adjusted p-value 0.00445577): 1.585 | log2(fold-change) Gm21807 transcript (spinal cord RNA-Seq, RG3039 2B/- vs. vehicle 2B/-, adjusted p-value 0.00737848): 1.663 | log2(fold-change) Ak3l2-ps transcript (spinal cord RNA-Seq, RG3039 2B/- vs. vehicle 2B/-, adjusted p-value 0.0076012): 1.688 | log2(fold-change) Gm25014 transcript (spinal cord RNA-Seq, RG3039 2B/- vs. vehicle 2B/-, adjusted p-value 0.00761921): 1.585 | log2(fold-change) Mrgprd transcript (spinal cord RNA-Seq, RG3039 2B/- vs. vehicle 2B/-, adjusted p-value 0.0177741): 1.807 | log2(fold-change) Ucp1 transcript (spinal cord RNA-Seq, RG3039 2B/- vs. vehicle 2B/-, adjusted p-value 0.0259172): -1.858 | log2(fold-change) Scn10a transcript (spinal cord RNA-Seq, RG3039 2B/- vs. vehicle 2B/-, adjusted p-value 0.0498434): 1.7 | log2(fold-change) 4930481A15Rik transcript (spinal cord RNA-Seq, RG3039 2B/- vs. vehicle 2B/-, adjusted p-value 1.16E-05): -2.273 | log2(fold-change) Gm13558 transcript (spinal cord RNA-Seq, RG3039 2B/- vs. vehicle 2B/-, adjusted p-value 1.21E-05): -2 | log2(fold-change) Itga2 transcript (spinal cord RNA-Seq, RG3039 2B/- vs. vehicle 2B/-, adjusted p-value 1.25E-05): 1.883 | log2(fold-change) Ifi44 transcript (spinal cord RNA-Seq, RG3039 2B/- vs. vehicle 2B/-, adjusted p-value 1.41E-22): 2.678 | log2(fold-change) Etnppl transcript (spinal cord RNA-Seq, RG3039 2B/- vs. vehicle 2B/-, adjusted p-value 2.00E-23): -2.764 | log2(fold-change) Ada transcript (spinal cord RNA-Seq, RG3039 2B/- vs. vehicle 2B/-, adjusted p-value 2.62E-17): -2.097 | log2(fold-change) Sgk1 transcript (spinal cord RNA-Seq, RG3039 2B/- vs. vehicle 2B/-, adjusted p-value 2.77E-28): -1.812 | log2(fold-change) Dpep1 transcript (spinal cord RNA-Seq, RG3039 2B/- vs. vehicle 2B/-, adjusted p-value 3.30E-07): -2.385 | log2(fold-change) Tmem52 transcript (spinal cord RNA-Seq, RG3039 2B/- vs. vehicle 2B/-, adjusted p-value 3.37E-32): -2.209 | log2(fold-change) A830073O21Rik transcript (spinal cord RNA-Seq, RG3039 2B/- vs. vehicle 2B/-, adjusted p-value 3.74E-09): 1.69 | log2(fold-change) Usp18 transcript (spinal cord RNA-Seq, RG3039 2B/- vs. vehicle 2B/-, adjusted p-value 4.16E-13): 1.709 | log2(fold-change) Slc10a6 transcript (spinal cord RNA-Seq, RG3039 2B/- vs. vehicle 2B/-, adjusted p-value 4.39E-06): -2.443 | log2(fold-change) Oas1a transcript (spinal cord RNA-Seq, RG3039 2B/- vs. vehicle 2B/-, adjusted p-value 4.66E-07): 1.712 | log2(fold-change) Plin4 transcript (spinal cord RNA-Seq, RG3039 2B/- vs. vehicle 2B/-, adjusted p-value 4.90E-27): -3.356 | log2(fold-change) Map3k6 transcript (spinal cord RNA-Seq, RG3039 2B/- vs. vehicle 2B/-, adjusted p-value 5.02E-31): -2.942 | log2(fold-change) 8430408G22Rik transcript (spinal cord RNA-Seq, RG3039 2B/- vs. vehicle 2B/-, adjusted p-value 5.30E-09): -1.92 | log2(fold-change) Fmo2 transcript (spinal cord RNA-Seq, RG3039 2B/- vs. vehicle 2B/-, adjusted p-value 6.18E-07): -2.118 | log2(fold-change) Tmem82 transcript (spinal cord RNA-Seq, RG3039 2B/- vs. vehicle 2B/-, adjusted p-value 7.17E-13): -2.075 | log2(fold-change) Sds transcript (spinal cord RNA-Seq, RG3039 2B/- vs. vehicle 2B/-, adjusted p-value 7.23E-13): -2.356 | log2(fold-change) Gp2 transcript (spinal cord RNA-Seq, RG3039 2B/- vs. vehicle 2B/-, adjusted p-value 7.46E-06): 1.536 | log2(fold-change) Gm11827 transcript (spinal cord RNA-Seq, RG3039 2B/- vs. vehicle 2B/-, adjusted p-value 7.82E-08): -2.193 | log2(fold-change) Chml transcript (spinal cord RNA-Seq, RG3039 2B/- vs. vehicle 2B/-, adjusted p-value 8.74E-18): 1.585 | log2(fold-change) Gm15622 transcript (spinal cord RNA-Seq, RG3039 2B/- vs. vehicle 2B/-, adjusted p-value 9.01E-05): 2.027 | share of detectable genes modulated (spinal cord, 2B/+ control mice): less than 0.5% | log2(fold-change), gene Mt1 (spinal cord, 2B/- RG3039 vs 2B/- vehicle, adjusted p-value 1.29E-57): -1.302 | log2(fold-change), gene Polr3e (spinal cord, 2B/- RG3039 vs 2B/- vehicle, adjusted p-value 1.67E-54): -1.443 | log2(fold-change), gene Fam107a [1]: -1.657 | log2(fold-change), gene Fkbp5 [1]: -1.583 | log2(fold-change), gene Mt2 (spinal cord, 2B/- RG3039 vs 2B/- vehicle, adjusted p-value 2.67E-76): -1.696 | Smn transcripts as detected by RNA-Seq (spinal cord, 2B/- SMA mice): did not appear to increase Smn transcripts | share of the measurable genes with altered expression (spinal cord, 2B/- SMA mice RG3039 vs vehicle): approximately 26.8% | genes with significantly (P < 0.05) altered expression (spinal cord, 2B/- SMA mice RG3039 vs vehicle-treated 2B/-): 5,497 genes | genes affected in opposite directions by disease and by compound treatment (spinal cord, 2B/- mice): 591 genes | ZPR1 expression in whole spinal cord by RNA-seq (vehicle vs RG3039 treated SMA mice): no difference in ZPR1 expression
